One experiment relates to P388. Briefly: Cytotoxicity against mouse P388 cells. Conditions: read-out: ED50 (the source's name). The experiment is classed as functional.
The test system of another experiment is KB. Put plainly: Cytotoxicity against human KB cells. The experiment is classed as functional. The settings on record: read-out: ED50 (the source's name).

The results in this text go back to ChEMBL document CHEMBL1151354, “Isofraxidin, a cytotoxic coumarin from Micrandra elata (Euphorbiaceae)” (1980).

Each structure is given as a SMILES string. ≈ marks a conversion by molar mass, not a printed value.

Regarding `COc1cc2ccc(=O)oc2c(OC)c1O`, the EC50 was 1.7 µg/mL (≈ 7.65 µM) with P388 and above 100 µg/mL in the experiment with KB.
